Measurements: PMC10610289, “Novel Baicalein-Derived Inhibitors of Plasmodium falciparum” (Pathogens, 2023)
Entries after “also recorded” stand apart in the source; their conditions may differ. Read-outs that look alike come from different tables or passages of the source.

Columns and labels:
[1] = tested on: Plasmodium falciparum 3D7 (chloroquine-sensitive); test: Antimalarial assay (IC50 determination), asexual blood stage, SYBR green; type: cell-based; conditions: Plasmodium falciparum
Experimental: (§1) Parasite lines used in the study were P. falciparum 3D7 (Pf3D7 Chloroquine-sensitive) and Plasmodium falciparum K1 (PfK1 Chloroquine-resistant) sourced from the Malaria Research and Reference Reagent Resource Center (MR4), ATCC, Manassas, VA, USA. FNDR-10132 was tested against a cross-resistance panel at Swiss TPH, Allschwil, Switzerland.
(§2) As per the modified protocol stated by Trager and Jensen, 1976, Plasmodium falciparum parasite lines (Pf3D7 and PfK1) were cultured. Plasmodium strains were maintained in RPMI-1640 medium at 3–5% hematocrit supplemented with 0.2% w/v glucose, 0.5% w/v AlbuMaxII, 0.2% w/v NaHCO3, and 30 μg/mL gentamycin, and, additionally, 15 μM hypoxanthine was added and incubated at 37 °C with 5% O2, 5% CO2, and 90% N2. After 24 h, the medium was changed. After attaining high parasitemia (6–8% mature stage parasite), the culture was sub-passaged with fresh human RBCs.
(§3) All tested compounds were dissolved in a DMSO solvent and a prepared stock solution of 10 mM. The reference drug, Chloroquine diphosphate, was dissolved in CRPMI. Working solutions were made from stock solution after diluting in a CRPMI medium during the experiment. The maximum concentration of DMSO used in this study was <1%. It had no parasiticidal effect.
(§4) The P. falciparum (0.8–1% parasitemia and 1% hematocrit) synchronous culture was exposed for 72 h (at 37 °C, 5% O2, 5% CO2, and 90% N2) to the serially diluted compound in 96-well plates. A total of 100 µL of RBCs lytic buffer (5 mM EDTA, 20 mM Tris pH 7.5, 0.08% Triton X-100, and 0.008% Saponin) containing the SYBR green 1-X final concentration was distributed to each well and incubated for one hour at room temp in the dark. The plates were read under a fluorescence reader at an excitation of 485 ± 20 nm and emission of 535 ± 25 nm. The IC50 values were calculated based on the DNA content of the parasite relative to its control. An inhibitory concentration of 50% (IC50) was determined using the MS-EXEL template.

[2] = tested on: Plasmodium falciparum K1 (chloroquine-resistant); test: as above; type: cell-based; conditions: read-out: ABS Assay Pf (K1)
Experimental: as §1, §2, §3, §4

[3] = tested on: P. falciparum female gametocytes; test: P. falciparum dual gamete formation assay (PfDGFA), female; type: cell-based; conditions: Plasmodium falciparum, read-out: DGF Assay—Inhibition, female
Experimental: (§5) The FNDR-10132 was evaluated in a male and female gametocyte functional viability assay by following the procedure described in Ruecker et al..

[4] = tested on: P. falciparum male gametocytes; test: P. falciparum dual gamete formation assay (PfDGFA), male; type: cell-based; conditions: Plasmodium falciparum, read-out: DGF Assay—Inhibition, male
Experimental: as §5

Dd2 (wt) = test: Cross-resistance panel, Dd2 wt; type: cell-based, Plasmodium falciparum; conditions: strain Dd2 wt
Experimental: as §1

[5] = tested on: Dd2 390048 (Pfpi4k S743T); test: Cross-resistance panel, Dd2 390048; type: cell-based, Plasmodium falciparum
Experimental: as §1

Dd2 DSM265 (Pfdhodh) = test: Cross-resistance panel, Dd2 DSM265; type: cell-based, Plasmodium falciparum
Experimental: as §1

[6] = tested on: Dd2 GNF156 (Pfcarl Ile1139Lys); test: Cross-resistance panel, Dd2 GNF156; type: cell-based, Plasmodium falciparum
Experimental: as §1

[7] = tested on: resistant strains of P. falciparum; test: Cross-resistance panel, all mutants/strains tested; type: cell-based; conditions: Plasmodium falciparum, read-out: antimalarial activity range against all mutants/strains tested
Experimental: as §1

Plasma stability = type: in vitro ADME
Source text: (§6) Table 5 The compound FNDR-10132 progression profile. | column: FNDR-10132

THP-1 = test: Cytotoxicity in THP-1; type: cell-based
Source text: as §6

Vero cells = test: Cytotoxicity assay against Vero cell line; type: cell-based; conditions: 72 h, resazurin (CC50)
Experimental: Vero cells were initially washed with PBS and trypsinized, and a 1 × 10^5 cells/mL suspension was prepared. A total of 100 µL of a cell suspension was distributed to each well of the 96-well microtiter plates and allowed to adhere overnight. The next day, serial dilutions of selected test compounds were made in the plates and incubated for 72 h. After 72 h, a ten-microliter resazurin solution (12.5 mg/100 mL PBS) was added to each well. After 3 h, plates were read using a fluorescence reader (Biotek) at an excitation wavelength of 530 nm and an emission wavelength of 590 nm (Sperandeo and Brun, 2003). The MS-EXEL template determined the cytotoxic concentration (CC50) for selected compounds.

[8] = tested on: Plasmodium yoelii N67 (Chloroquine-resistant); test: In vivo antimalarial assay in Swiss mice; conditions: 100 mg/kg ×4 days, oral
Experimental: All animal experiments were performed following the institutional animal ethics committee (IAEC). Laboratory-bred Swiss albino mice (both male and female) weighing 20–22 g were obtained from breeding colonies at the National Laboratory Animal Centre at the CSIR-CDRI, Lucknow, with due permission from the animal ethics committee (IAEC/2018/16/Renew-1/Dated-05/04/2019). The rodent malaria parasite Plasmodium yoelii N67 (chloroquine-resistant) was used for the study. This parasite was maintained by serial passage in healthy Swiss mice of either sex.
Swiss mice were inoculated with a standard inoculum of 1 × 106 P. yoelii N67 parasitized erythrocytes intraperitoneally. The 22-gauge hypodermic needle was used to infect the mice and was injected with a 0.5 mL (infected RBCs) volume. Treatment was initiated from day 0 to day 3 (total 4 days) once daily, and different routes of administration, viz., oral, intravenous, intraperitoneally, and subcutaneous, were used. For in vivo evaluation, compounds were dissolved in 300 µL of DMSO and were made up with MilliQ. The efficacy of in vitro active compounds was evaluated for in vivo activity at different doses, and the desired daily dose was administered in a 0.2 mL volume. A drop of blood from the mice’s tails was collected regularly throughout the experiment for parasitemia estimation. The group’s mean value was calculated using the percentage suppression of parasitemia compared with the untreated control group.

[9] = Body weight of mice during treatment; type: in vivo, Swiss mice; conditions: 100 mg/kg oral
Source text: One crucial aspect of evaluating potential malaria treatments is assessing their safety and tolerance in the host organism. In this regard, the present study closely monitored the body weights of the mice throughout the drug treatment.

Structure (SMILES): CCCCCCc1ccc(-c2cc(=O)c3c(O)c(O)c(O)cc3o2)cc1 [FNDR-10132]
- IC50 ([1]; 3D7, 72 h, P. falciparum 3D7, 72 h exposure, read-out: IC50): 60 nM
- IC50 ([1]; 3D7, chloroquine-sensitive 3D7, read-out: ABS Assay Pf (3D7)): 60 nM
- IC50 [2]: 177 nM
- inhibition at 1 µM [3]: 9.5%
- inhibition at 1 µM [4]: 1.6%
- IC50 (Dd2 (wt); Plasmodium falciparum): 328 nM
- Fold shift IC50 rel. Dd2 (Dd2 (wt)): 1.0
- IC50 ([5]; Plasmodium falciparum, DD2): 290 nM
- Fold shift IC50 rel. Dd2 ([5]; strain Dd2 390048): 0.9
- IC50 (Dd2 DSM265 (Pfdhodh); Plasmodium falciparum): 260 nM
- Fold shift IC50 rel. Dd2 (Dd2 DSM265 (Pfdhodh); strain Dd2 DSM265): 0.8
- IC50 ([6]; Plasmodium falciparum, DD2): 292 nM
- Fold shift IC50 rel. Dd2 ([6]; strain Dd2 GNF156): 0.9
- IC50 [7]: 200 to 300 nM
- Plasma Stability (Plasma stability; at 30 min): 87.61%
- Plasma Stability (Plasma stability; at 45 min): 80.97%
- Cytotoxicity THP-1 (THP-1): 90 µM
- Cytotoxicity Vero Cell (Vero cells): 174 µM
- % Parasitemia ± S.D on Day 4 [8]: 8.5 ± 1.39 (4) %
- % Parasitemia ± S.D on Day 7 [8]: 26.15 ± 8.70 (4) %
- % Parasitemia ± S.D on Day 10 [8]: 24.07 ± 3.69 (3) %
- % Parasitemia ± S.D on Day 14 [8]: 46.5 ± 4.2 (2) %
- % Parasitemia ± S.D on Day 21 [8]: Dead
- Mean Survival Time (MST) Days ± SD [8]: 13.5 ± 2.3 days
- Day 4 % Suppression ([8]; Swiss mice): 44%
- Weight of Mice Day after the Last Dose of Treatment (Day 4) [9]: 27.5 gm
- Weight of Mice at the Initiation of Treatment (Day 0) [9]: 25 gm
- weight loss / tolerability (in words) [9]: no significant weight loss; also recorded: well-tolerated
- Weight Gain ([9]; Day 0 to Day 4): 2.5 gm
